Measurements published in article PMC9457600, “Synthesis, Leishmanicidal, Trypanocidal, Antiproliferative Assay and Apoptotic Induction of (2-Phenoxypyridin-3-yl)naphthalene-1(2H)-one Derivatives” (Molecules, 2022).

Key:
[1] = test system: epimastigotes of Trypanosoma cruzi strain MHOM/VE/92/YBM; assay: MTT viability of T. cruzi epimastigotes; format: cell-based; conditions: for EC50: 72 h, epimastigotes
[2] = test system: VERO cells; assay: MTT cytotoxicity on VERO cells; format: cell-based, African green monkey; conditions: Chlorocebus sabaeus, 72 h
Description: (§1) Vero cells were derived from the kidney of an African green monkey, cells were maintained in Dulbecco’s Modified Eagle’s Medium (DMEM), supplemented with 10% heat-inactivated FBS and penicillin-streptomycin solution 1% at 37 °C, 5% CO2 atmosphere and > 95% humidity. We evaluated through a colorimetric method the effect of compounds 8–23 on the promastigotes of L. brasiliensis. Briefly, 96-well plates were used, where 2 × 10^6 parasites/mL were seeded. A concentration of 50 μM was used for each compound and an incubation time of 96 h at 29 °C. 3-(4,5-dimethylthiazol-2-yl)-2,5-diphenyl tetrazolium bromide (MTT) 1 μg/mL was added and incubated in darkness for 4 h, acidic isopropanol (4N) was added and the plate was read at 570 nm in a spectrophotometer Synergy HT (Biotek). Miltefosine was used as a reference drug. The EC50 calculation of the selected compound was performed using growth curves. Direct counting was used to monitor the proliferation of parasites, three independent experiments were performed for each concentration of the compounds evaluated. The in vitro evaluations of compounds toxicity by MTT in VERO and BMDM cells follow a methodology described above with some modifications. The selectivity index was calculated with SI = CC50/EC50, where CC50 was the maximum concentration range of compounds 10, 21–23 used to evaluate cytotoxicity in VERO and BMDM cells. The trypanocidal activity of compounds 8–23 was evaluated on the viability of T. cruzi epimastigotes through a colorimetric method adapted with minor modifications. 2 × 10^6 parasites/mL were seeded in a 96-well plate, adding 50 μM of each derivative dissolved in DMSO (final concentration remained below 1%). The plate was incubated for 96 h at 29 °C. Then, 1 μg/mL of 3-(4,5-dimethylthiazol-2-yl)-2,5-diphenyl tetrazolium bromide (MTT) was added and incubated in darkness for 4 h. After this time, acidic isopropanol (4N) was added and the plate was read at 570 nm in a spectrophotometer Synergy HT (Biotek). Benznidazole was used as a reference drug. The in vitro evaluations of compounds toxicity by MTT in VERO and BMDM cells follow a methodology described above with some modifications. Cells were counted in suspension and seeded at 20 × 10^3 cells/well. The test was carried out in triplicate on 96-well microplates in different concentrations: 50 μM, 100 μM, 200 μM and 300 μM, untreated cells and reference drug (benznidazole) controls.

[3] = test system: promastigotes of Leishmania (V.) braziliensis strain MHOM/CO/87/UA301; assay: MTT viability of L. braziliensis promastigotes; format: cell-based
Description: Promastigotes of Leishmania (V.) braziliensis strain MHOM/CO/87/UA301 were isolated from footpad lesions in Balb/C mice previously infected. In the process of maintenance and differentiation of the parasites, the LTI medium (tryptose 15 g/L, yeast extract 5 g/L, liver extract 2 g/L, hemin-NaOH 0.02 g/L, glucose 4 g/L, NaCl 9 g/L, KCl 0.4 g/L Na2HPO4, 7.5 g/L at pH 7.4) supplemented with 10% fetal calf serum and maintained at 29 °C was used.
Briefly, 96-well plates were used, where 2 × 10^6 parasites/mL were seeded. A concentration of 50 μM was used for each compound and an incubation time of 96 h at 29 °C. 3-(4,5-dimethylthiazol-2-yl)-2,5-diphenyl tetrazolium bromide (MTT) 1 μg/mL was added and incubated in darkness for 4 h, acidic isopropanol (4N) was added and the plate was read at 570 nm in a spectrophotometer Synergy HT (Biotek). Miltefosine was used as a reference drug. The EC50 calculation of the selected compound was performed using growth curves. Direct counting was used to monitor the proliferation of parasites, three independent experiments were performed for each concentration of the compounds evaluated. The in vitro evaluations of compounds toxicity by MTT in VERO and BMDM cells follow a methodology described above with some modifications [60].

[4] = test system: BMDM macrophages; assay: MTT cytotoxicity on BMDM macrophages; format: cell-based; conditions: Mus musculus, 72 h
Text: as §1, with “T. cruzi epimastigotes MHOM/VE/92/YBM venezuelan strain” for “Vero cells”, “used to test” for “derived from”, “anti T. cruzi in vitro studies. The strain was” for “kidney of an African green monkey, cells were”, “a modified LIT medium” for “Dulbecco’s Modified Eagle’s Medium (DMEM), supplemented”, “fetal bovine serum (FBS). Mouse bone marrow was used to obtain BMDM macrophages. Mouse fibroblast-conditioned medium L-929 was used for the differentiation” for “heat-inactivated FBS”, “maintenance of BMDM macrophages.” for “penicillin-streptomycin solution 1% at 37 °C, 5% CO2 atmosphere and > 95% humidity.”

[5] = test system: CCRF-CEM; assay: MTS antiproliferative assay CCRF-CEM; format: cell-based; conditions: Homo sapiens, 72 h of incubation
Text: (§2) The cell lines used were acquired from the American Type Culture Collection (ATCC), CCRF-CEM (T lymphoblastic leukemia), K562 ([…]), U2OS (osteosarcoma), HCT116 (colon carcinoma), A549 (lung adenocarcinoma) and HCT116p53−/− (HCT116 cell line mutated in p53) Horizon Discovery Ltd., (Waterbeach, Cambridge, United Kingdom).
(§3) In our laboratory, IMTM, we generated the daunorubicin-resistant subline of CCRF-CEM cells (CEM-DNR bulk) and paclitaxel-resistant subline K562-TAX, as described previously. […] Both ABC transporters are involved in drug resistance. As a control, human fibroblasts MRC-5 and BJ cell lines were used. […] Adherent cells were passaged using PBS containing 0.25% trypsin plus 0.01% EDTA (ethylenediamine tetraacetic acid) every 2–3 days.
(§4) The antiproliferative activity of compounds was determined using a standard 3-(4,5-dimethylthiazol-2yl)-5-(3-carboxymethoxyphenyl)-2-(4-sulfophenyl)-2H-tetrazolium (MTS) reduction assay on a robotic high throughput screening platform (HighResBio, Boston, MA, USA) following treatment of cells for 3–7 days. The IC50 values were calculated from the appropriate dose–response curves with Dotmatics software (San Diego, CA, USA).

[6] = test system: CEM-DNR; assay: MTS antiproliferative assay CEM-DNR; format: cell-based; conditions: Homo sapiens, 72 h of incubation, daunorubicin-resistant
Text: as §2, §3, §4

[7] = test system: K562; assay: MTS antiproliferative assay K562; format: cell-based, human; conditions: Homo sapiens, K562, 72 h, 72 h of incubation
Text: as §2, §3, §4

[8] = test system: K562-TAX; assay: MTS antiproliferative assay K562-TAX; format: cell-based, human; conditions: Homo sapiens, K562-Tax, 72 h, 72 h of incubation; paclitaxel-resistant
Text: as §2, §3, §4

[9] = test system: A549; assay: MTS antiproliferative assay A549; format: cell-based, human; conditions: Homo sapiens, A549, 72 h, 72 h of incubation
Text: as §2, §3, §4

[10] = test system: HCT-116; assay: MTS antiproliferative assay HCT116; format: cell-based; conditions: Homo sapiens, 72 h of incubation
Text: as §2, §3, §4

[11] = test system: HCT116p53−/−; assay: MTS antiproliferative assay HCT116p53-/-; format: cell-based; conditions: Homo sapiens; 72 h of incubation
Text: as §2, §3, §4

[12] = test system: U2OS; assay: MTS antiproliferative assay U2OS; format: cell-based; conditions: Homo sapiens, 72 h of incubation
Text: as §2, §3, §4

[13] = test system: MRC-5; assay: MTS assay on non-malignant MRC-5; format: cell-based; conditions: MRC5; noncancerous human cell line
Description: as §3, §4

[14] = test system: BJ; assay: MTS assay on non-malignant BJ; format: cell-based; conditions: noncancerous human cell line
Description: as §3, §4

| SMILES | EC50 ([1]; Trypanosoma cruzi) [µM] | EC50 [2] [µM] | EC50 ([3]; 72 h, promastigotes) [µM] | EC50 ([3]; promastigotes, 72 h) [µM] | EC50 [4] [µM] | IC50 [5] [µM] | IC50 [6] [µM] | IC50 [7] [µM] | IC50 [8] [µM] | IC50 [9] [µM] | IC50 [10] [µM] | IC50 [11] [µM] | IC50 [12] [µM] | IC50 [13] [µM] | IC50 [14] [µM] | melting point [°C] | further results |
| --- | --- | --- | --- | --- | --- | --- | --- | --- | --- | --- | --- | --- | --- | --- | --- | --- | --- |
| O=C(Cn1ccnc1[N+](=O)[O-])NCc1ccccc1 [Bnz, benznidazole, reference compound] | 30 ± 0.7 | 120 ± 2.3 | – | – | – | – | – | – | – | – | – | – | – | – | – | – | SIV/Tc selectivity index on T. cruzi/VERO ([1]; SI = CC50/EC50): 4 |
| O=C1/C(=C/c2cccnc2Oc2ccccc2)CCc2ccccc21 [Compound 8, (E)-3,4-Dihydro-2-[(2-phenoxypyridin-3-yl)methylene]naphthalen-1(2H)-one] | > 60 | > 100 | ≤ 60 | 57.6 ± 1.62 | > 1000 | 4.15 ± 0.74 | 38.2 ± 6.26 | > 50 | 20 ± 2.16 | > 50 | > 50 | > 50 | > 50 | > 50 | > 50 | – | – |
| COc1cccc2c1CC/C(=C\c1cccnc1Oc1ccccc1)C2=O [Compound 9, (E)-3,4-Dihydro-5-methoxy-2-[(2-phenoxypyridin-3-yl)methylene]naphthalen-1(2H)-one] | > 60 | < 100 | ≥ 60 | > 60 | > 1000 | 6.15 ± 0.84 | 26.3 ± 7.95 | 19.6 ± 3.67 | 24.1 ± 6.02 | 30 ± 5.83 | 24.8 ± 3.77 | 20.2 ± 3.1 | 19.6 ± 3.65 | > 50 | > 50 | – | – |
| COc1ccc2c(c1)CC/C(=C\c1cccnc1Oc1ccccc1)C2=O [Compound 10, (E)-3,4-Dihydro-6-methoxy-2-[(2-phenoxypyridin-3-yl)methylene]naphthalen-1(2H)-one] | > 60 | 89 ± 15 | – | – | < 1000 | 13.2 ± 1.82 | 33.7 ± 6.78 | 44.6 ± 3.67 | 30.1 ± 7.28 | > 50 | > 50 | > 50 | > 50 | > 50 | > 50 | 134 | SIV/Lb selectivity index on L. braziliensis/VERO ([3]; SI = CC50/EC50): 4 |
| COc1ccc2c(c1)C(=O)/C(=C/c1cccnc1Oc1ccccc1)CC2 [Compound 11, (E)-3,4-Dihydro-7-methoxy-2-[(2-phenoxypyridin-3-yl)methylene]naphthalen-1(2H)-one] | > 60 | < 100 | ≥ 60 | > 60 | < 1000 | 8.79 ± 0.76 | 45.1 ± 7.9 | > 50 | > 50 | > 50 | > 50 | > 50 | > 50 | > 50 | > 50 | 136 | – |
| O=C1/C(=C/c2cccnc2Oc2ccc(Cl)cc2)CCc2ccccc21 [Compound 20, (E)-2-{[2-(4-Chlorophenoxy)pyridin-3-yl]methylene}-3,4-dihydronaphthalen-1(2H)-one] | < 60 | > 1000 | ≥ 60 | > 60 | > 1000 | 6.07 ± 0.63 | 28.2 ± 4.83 | 23.6 ± 2.55 | 32.5 ± 2.93 | 37 ± 3.98 | 26.2 ± 2.4 | 25.6 ± 3.77 | 27.9 ± 4.13 | > 50 | > 50 | 130 | EC50 [1]: 57.4 ± 3.6 µM |
| COc1cccc2c1CC/C(=C\c1cccnc1Oc1ccc(Cl)cc1)C2=O [Compound 21, (E)-2-{[2-(4-Chlorophenoxy)pyridin-3-yl]methylene}-3,4-dihydro-5-methoxynaphthalen-1(2H)-one] | < 60 | 103 ± 15 | 9.24 ± 1 | – | > 1000 | 10.4 ± 2.46 | 35.8 ± 4.25 | 32.7 ± 3.67 | 23.6 ± 8.79 | 46.9 ± 4.02 | 38.1 ± 5.44 | 31.1 ± 4.45 | 46.8 ± 4.26 | > 50 | > 50 | – | EC50 [1]: 35.5 ± 10 µM |
| COc1ccc2c(c1)C(=O)/C(=C/c1cccnc1Oc1ccc(Cl)cc1)CC2 [Compound 23, (E)-2-{[2-(4-Chlorophenoxy)pyridin-3-yl]methylene}-3,4-dihydro-7-methoxynaphthalen-1(2H)-one] | 4.91 ± 0.98 | 100 ± 16 | 5.69 ± 2.65 | – | > 1000 | 15.7 ± 1.54 | 23.9 ± 4.98 | > 50 | 16.1 ± 4.44 | > 50 | > 50 | > 50 | > 50 | > 50 | > 50 | 160 | SIB/Lb selectivity index on L. braziliensis/BMDM ([3]; SI = CC50/EC50): 176; SIV/Lb selectivity index on L. braziliensis/VERO ([3]; SI = CC50/EC50): 18; SIV/Tc selectivity index on T. cruzi/VERO ([1]; SI = CC50/EC50): 20; selectivity index T. cruzi vs BMDM (CC50/EC50) ([1]; SI = CC50/EC50): > 204 |
| CCCCCCCCCCCCCCCCOP(=O)([O-])OCC[N+](C)(C)C [Mil, miltefosine, reference compound] | – | – | 25 ± 1.4 | – | 125 ± 4.7 | – | – | – | – | – | – | – | – | – | – | – | SIB/Lb selectivity index on L. braziliensis/BMDM ([3]; SI = CC50/EC50): 5 |
